Test results taken from US12612386B2, “Heteroaryl-triazole compounds as pesticides” (Bayer Aktiengesellschaft, priority 2020, dated 2026).

Legend:
Type in all cases: in vivo
[1] = test system: green peach aphid (Myzus persicae); test: Myzus persicae spray test (MYZUPE); settings: 120 h; for mortality at 100 g/ha: after 5 days; for Emax at 20 g/ha / Emax at 100 g/ha: MYZUPE, 5 dat (Table 4), read-out: % Efficacy; for Emax at 20 g/ha: 20 g ai/ha; for Emax at 100 g/ha: 100 g ai/ha
Procedure: Myzus persicae—Spray Test
• Solvent: 78.0 parts by weight acetone • 1.5 parts by weight dimethylformamide • Emulsifier: alkylarylpoly glycol ether
(§1) To produce a suitable preparation of active compound, 1 part by weight of active compound is mixed with the stated amount of solvents and is diluted with water, containing an emulsifier concentration of 1000 ppm, to the desired concentration. Further test concentrations are prepared by dilution with emulsifier containing water.
Chinese cabbage (Brassica pekinensis) leaf disks infected with all instars of the green peach aphid (Myzus persicae), are sprayed with a preparation of the active ingredient of the desired concentration.
After 5 days mortality in % is determined. 100% means all aphids have been killed and 0% means none of the aphids have been killed.
Myzus persicae—Spray Test (MYZUPE)
(§2) • Solvent: 78.0 parts by weight acetone • 1.5 parts by weight dimethylformamide • Emulsifier: alkylarylpolyglycol ether
After the specified period of time, mortality in % is determined. 100% means all aphids have been killed and 0% means none of the aphids have been killed.

[2] = test system: fall armyworm larvae (Spodoptera frugiperda); test: whole plant or invertebrate; settings: 168 h
Procedure: Spodoptera frugiperda—Spray Test
as §2, §1
Maize (Zea mays) leaf sections are sprayed with a preparation of the active ingredient of the desired concentration. Once dry, the leaf sections are infested with fall armyworm larvae (Spodoptera frugiperda).
After 7 days mortality in % is determined. 100% means all caterpillars have been killed and 0% means none of the caterpillars have been killed.
Spodoptera frugiperda—Spray Test (SPODFR)
After the specified period of time, mortality in % is determined. 100% means all caterpillars have been killed and 0% means none of the caterpillars have been killed.

[3] = test system: larvae of the southern green stink bug (Nezara viridula); test: whole plant or invertebrate; settings: 96 h
Procedure: Nezara viridula—Spray Test
(§3) • Solvent: 78.0 parts by weight of acetone • 1.5 parts by weight of dimethylformamide • Emulsifier: alkylarylpolyglycol ether
(§4) To produce a suitable preparation of active compound, 1 part by weight of active compound is mixed with the stated amount of solvent, and the concentrate is diluted with water, containing an emulsifier concentration of 1000 ppm, to the desired concentration. Further test concentrations are prepared by dilution with emulsifier containing water.
Barley plants (Hordeum vulgare) are sprayed with a test solution containing the desired concentration of the active ingredient and are infested with larvae of the southern green stink bug (Nezara viridula).
After 4 days mortality in % is determined. 100% means all the stink bugs have been killed; 0% means none of the stink bugs have been killed.

[4] = test system: larvae of the banded cucumber beetle (Diabrotica balteata); test: Diabrotica balteata spray test; settings: 168 h, 100 g/ha (=32 μg/well), after 7 days, read-out: efficacy (seedling growth)
Procedure: Diabrotica balteata—Spray Test
as §3, §4
Soaked wheat seeds (Triticum aestivum) are placed in a multiple well plate filled with agar and some water and are incubated for 1 day to germinate (5 seeds per well). The germinated wheat seeds are sprayed with a test solution containing the desired concentration of the active ingredient. Afterwards each unit is infected with 10-20 larvae of the banded cucumber beetle (Diabrotica balteata).
After 7 days efficacy in % is determined. 100% means all the seedlings have grown up like in the untreated, uninfected control; 0% means none of the seedlings have grown.

| Compound | mortality at 100 g/ha [1] [%] | mortality at 100 g/ha [2] [%] | mortality at 500 g/ha [3] [%] | pest or weed control at 32 µg/disc, 100 g/ha [4] [%] | Emax at 20 g/ha [1] [%] | Emax at 100 g/ha [1] [%] | Emax at 20 g/ha ([2]; SPODFR, 20 g ai/ha, 7 dat (Table 4), read-out: % Efficacy) [%] | Emax at 100 g/ha ([2]; SPODFR, 100 g ai/ha, 7 dat (Table 4), read-out: % Efficacy) [%] |
| --- | --- | --- | --- | --- | --- | --- | --- | --- |
| C[C@H](NC(=O)c1cc(Br)cc(S(C)(=O)=O)c1)c1nc(C2CC2)nn1-c1cc(C(N)=O)ncn1 [I-143] | 100 | 100 | 100 |  |  |  |  |  |
| C[C@H](NC(=O)c1cccc(I)c1)c1ncnn1-c1cc(C(N)=O)ncn1 [I-48] | 90 | 100 | 100 | 100 |  |  |  |  |
| C[C@H](NC(=O)c1cc(Cl)cc(S(=O)(=O)C(F)F)c1)c1nc(C2CC2)nn1-c1cc(C(=O)N(C)C)ncn1 [I-161] | 90 | 100 |  | 100 |  |  |  |  |
| CNC(=O)c1cc(-n2nc(C)nc2[C@H](C)NC(=O)c2cc(OC(F)F)cc(OC(F)F)c2)ncn1 [I-99] | 90 | 100 | 100 | 100 |  |  |  |  |
| C[C@H](NC(=O)c1cc(Cl)cc(S(C)(=O)=O)c1)c1nc(C2CC2)nn1-c1cc(C(N)=O)ncn1 [I-150] | 90 | 100 | 100 |  |  |  |  |  |
| Cc1nc([C@H](C)NC(=O)c2cc(Br)cc(OC(F)(F)F)c2)n(-c2cc(C(N)=O)ncn2)n1 [I-12] | 90 | 100 | 100 | 100 |  |  |  |  |
| C[C@H](NC(=O)c1cc(Cl)cc(OC(F)(F)F)c1)c1nc(C2CC2)nn1-c1cc(C(=O)N(C)C)ncn1 [I-166] | 100 | 100 |  | 100 |  |  |  |  |
| C[C@H](NC(=O)c1cc(OC(F)(F)F)cc(S(=O)(=O)C(F)(F)F)c1)c1ncnn1-c1cc(C(N)=O)ncn1 [I-58] | 90 | 100 | 100 | 100 |  |  |  |  |
| Cc1nc([C@H](C)NC(=O)c2cc(OC(F)(F)F)cc(S(C)(=O)=O)c2)n(-c2cc(C#N)ncn2)n1 [I-30] |  | 100 | 100 | 100 |  |  |  |  |
| C[C@H](NC(=O)c1ccnc(OC(F)(F)F)c1)c1ncnn1-c1cc(C(N)=O)ncn1 [I-132] |  | 100 | 100 | 100 |  |  |  |  |
| C[C@H](NC(=O)c1cc(OC(F)(F)F)cc(C2CC2)c1)c1nc(C2CC2)nn1-c1cc(C(=O)N(C)C)ncn1 [I-159] | 90 | 100 |  | 100 |  |  |  |  |
| C[C@H](NC(=O)c1cc(C(F)(F)F)cc(S(C)(=O)=O)c1)c1nc(C2CC2)nn1-c1cc(C(=O)N(C)C)ncn1 [I-164] | 100 |  |  | 80 |  |  |  |  |
| C[C@H](NC(=O)c1cc(Cl)cc(S(=O)(=O)C(F)(F)F)c1)c1ncnn1-c1cc(C#N)ccn1 [I-075 Known from WO 2019197468, reference compound] |  |  |  |  | 70 | 90 | 33 | 100 |
| C[C@H](NC(=O)c1cc(OC(F)(F)F)cc(S(=O)(=O)C(F)F)c1)c1nc(C2CC2)nn1-c1cc(C(=O)N(C)C)ncn1 [I-156] | 90 | 100 |  | 100 |  |  |  |  |
| Cc1nc([C@H](C)NC(=O)c2cc(OC(F)(F)F)cc(OC(F)(F)F)c2)n(-c2cc(C(N)=O)ncn2)n1 [I-117] |  | 100 | 100 | 100 |  |  |  |  |
| C[C@H](NC(=O)c1cc(Cl)cc(S(C)(=O)=O)c1)c1nc(C2CC2)nn1-c1cc(C(=O)N(C)C)ncn1 [I-160] | 100 | 83 |  | 100 |  |  |  |  |
| C[C@H](NC(=O)c1cc(OC(F)(F)F)cc(C2(C#N)CC2)c1)c1ncnn1-c1cc(C(=O)NC2CC2)ncn1 [I-169] | 90 | 100 |  | 100 |  |  |  |  |
| C[C@H](NC(=O)c1cc(Br)cc(OC(F)(F)C(F)F)c1)c1ncnn1-c1cc(C(N)=O)ncn1 [I-112] | 100 | 100 |  | 100 |  |  |  |  |
| CC(C)NC(=O)c1cc(-n2ncnc2[C@H](C)NC(=O)c2cc(OC(F)(F)F)cc(C3(C#N)CC3)c2)ncn1 [I-163] | 100 | 100 |  | 100 |  |  |  |  |
| C[C@H](NC(=O)c1cc(OC(F)F)cc(OC(F)F)c1)c1nc(C2CC2)nn1-c1cc(C(N)=O)ncn1 [I-152] | 100 | 100 |  | 100 |  |  |  |  |
| CC(C)N(C)C(=O)c1cc(-n2ncnc2[C@H](C)NC(=O)c2cc(Br)cc(OC(F)F)c2)ncn1 [I-103] | 90 | 100 |  | 100 |  |  |  |  |
| C[C@H](NC(=O)c1cc(Br)nc(Br)c1)c1ncnn1-c1cc(C(N)=O)ncn1 [I-148] |  | 100 | 100 | 100 |  |  |  |  |
| C[C@H](NC(=O)c1cc(Br)cc(S(=O)(=O)C(F)(F)F)c1)c1ncnn1-c1cc(C(N)=O)ncn1 [I-138] |  | 100 | 100 | 80 |  |  |  |  |
| CCNC(=O)c1cc(-n2ncnc2[C@H](C)NC(=O)c2cc(OC(F)(F)F)cc(C3(C#N)CC3)c2)ncn1 [I-168] | 100 | 100 |  | 100 |  |  |  |  |
| C[C@H](NC(=O)c1cc(Cl)cc(S(=O)(=O)C(F)(F)F)c1)c1ncnn1-c1ccccn1 [I-068 Known from WO 2019197468, reference compound] |  |  |  |  | 0 | 0 |  |  |
| CC(C)N(C)C(=O)c1cc(-n2ncnc2[C@H](C)NC(=O)c2cc(OC(F)F)cc(OC(F)F)c2)ncn1 [I-97] | 90 | 100 |  |  |  |  |  |  |
| C[C@H](NC(=O)c1cc(OC(F)(F)F)cc(C2(C#N)CC2)c1)c1nc(C2CC2)nn1-c1cc(C(=O)N(C)C)ncn1 [I-167] | 100 | 100 |  | 80 |  |  |  |  |
| C[C@H](NC(=O)c1cc(Cl)cc(S(=O)(=O)C(F)F)c1)c1ncnn1-c1cc(C#N)ncn1 [I-119] |  | 100 | 100 | 100 |  |  |  |  |
| C[C@H](NC(=O)c1cc(Cl)cc(OC(F)(F)C(F)F)c1)c1ncnn1-c1cc(C(N)=O)ncn1 [I-113, 6-(5-{(1S)-1-[3-chloro-5-(1,1,2,2-tetrafluoroethoxy)benzamido]ethyl}-1H-1,2,4-triazol-1-yl)pyrimidine-4-carboxamide] | 90 | 100 |  |  |  |  |  |  |
